# Where two headings read alike, the source gives them in different places.
# How the values were obtained:
# [1] = test system: Aspergillus fumigatus; test: Aspergillus fumigatus infection of BEAS2B bronchial epithelial cells (GM in supernatant); type: cell-based
# Description: BEAS2B cells were seeded in 96-well plates (100 μL; 30,000 cells/well; Catalogue No 3596, Sigma Aldrich, Dorset, UK) in 10% FBS RPMI-1640 and were then incubated (37° C., 5% CO2) for one day before experimentation. Test compounds (0.5 μL DMSO solution) or vehicle (DMSO) were added to each well to give a final DMSO concentration of 0.5%. BEAS2B cells were incubated with test compounds for 1 hr (35° C., 5% CO2) before infection with Aspergillus fumigatus (20 μL; Public Health England) conidia suspension (0.5×10^5/ml in 10% FBS RPMI-1640). The plate was incubated for 24 hr (35° C., 5% CO2). Supernatant (50 μL) was collected and transferred to a PCR plate (Catalogue No L1402-9700, Starlab, Milton Keynes, UK), which was frozen (−20° C.) until use. After thawing, supernatant (5 μL) was diluted 1:20 by adding R7-PBS solution (95 μL; 1:4 R7 to PBS; Bio-Rad Laboratories, Redmond, Wash., USA). GM levels in these samples (50 μL) were measured using Platelia GM-EIA kits (Bio-Rad Laboratories, Redmond, Wash., USA). The percentage inhibition for each well was calculated and the IC50 value was calculated from the concentration-response curve generated for each test compound.
# [2] = test system: Candida albicans; test: Fungus panel screening, CLSI broth microdilution; type: cell-based; details: for MIC50 / MIC: Candida albicans; for MIC: read-out: MIC100
# Description: (§1) Fungus panel screening was conducted by Eurofins Panlabs Inc. The MIC and MIC50 values of the test articles were determined following the guidelines of the Clinical and Laboratory Standards Institute, broth microdilution methods for yeast (CLSI M27-A2), (CLSI, 2002) and for filamentous fungi (CLSI M38-A), (CLSI, 2008).
# [3] = test system: Candida glabrata; test: Fungus panel screening, CLSI broth microdilution; type: cell-based; details: Nakaseomyces glabratus; for MIC: read-out: MIC100
# Description: as §1
# [4] = test system: Chaetomium globosum; test: Fungus panel screening, CLSI broth microdilution; type: cell-based; details: strain ATCC44699, visual inspection (CLSI); for MIC: read-out: MIC100
# Description: as §1
# [5] = test system: Penicillium chrysogenum; test: Fungus panel screening, CLSI broth microdilution; type: cell-based; details: strain ATCC9480, visual inspection (CLSI); for MIC: read-out: MIC100
# Description: as §1
# [6] = test system: Rhizopus oryzae; test: Fungus panel screening, CLSI broth microdilution; type: cell-based; details: Rhizopus arrhizus, strain ATCC11145, visual inspection (CLSI); for MIC: read-out: MIC100
# Description: as §1
# [7] = test system: Trichophyton rubrum; test: Fungus panel screening, CLSI broth microdilution; type: cell-based; details: strain ATCC10218, visual inspection (CLSI); for MIC: read-out: MIC100
# Description: as §1
# [8] = test system: Aspergillus fumigatus (ATCC 13073); test: In vivo anti-fungal activity: CFU in lung and galactomannan in BALF and serum; parameters: species or system mice; details: for ID50, GM in BALF / ID50, GM in serum / ID50, Lung Fungal Load: Prophylactic Regimen
# Description: Aspergillus fumigatus (ATCC 13073 [strain: NIH 5233], American Type Culture Collection, Manassas, Va., USA) was grown on Malt agar (Nissui Pharmaceutical, Tokyo, Japan) plates for 6-7 days at RT (24±1° C.). Spores were aseptically dislodged from the agar plates and suspended in sterile distilled water with 0.05% Tween 80 and 0.1% agar. On the day of infection, spore counts were assessed by haemocytometer and the inoculum was adjusted to obtain a concentration of 1.67×10^8 spores mL^−1 of physiological saline.
# On day 0, animals were infected with the spore suspension (35 μL intra-nasally).
# Test compounds were administered intra-nasally ([…]) once daily, 30 min before infection on day 0 and then on days 1, 2 and 3 (representing prophylactic treatment) or on days 1, 2 and 3 only (representing therapeutic treatment). For extended prophylactic treatment, test compounds (35 μL of a suspension of 0.0032 or 0.016 mg/mL in physiological saline) were administered intra-nasally once daily for seven days; then 30 min before infection on day 0, and thereafter, either on days 1, 2 and 3 after infection, or on day 0 only. The effects of these treatment paradigms were compared with those obtained when treatment was restricted to one day and 30 min before inoculation and then on days 1, 2 and 3 post infection; or reduced still further to one day and 30 min before infection only.
# Six hours after the last dose, animals were anesthetised, the trachea was cannulated and BALF was collected. The total number of alveolar cells was determined using a haemocytometer, and the numbers of alveolar macrophages and neutrophils were determined by FACS analysis (EPICS® ALTRA II, Beckman Coulter, Inc., Fullerton, Calif., USA) using anti-mouse MOMA2-FITC (macrophage) or anti-mouse 7/4 (neutrophil), respectively, as previously reported (Kimura et al., 2013). The levels of IFN-γ and IL-17 in BALF, and IL-6 and TNFα in serum were determined using Quantikine® mouse IFN-γ, IL-17, IL-6 or TNF-α ELISA kit (R&D systems, Inc., Minneapolis, Minn., USA) respectively. MDA, an oxidative stress marker, was assayed using OxiSelect® TBARS Assay Kits (MDA Quantitation; Cell Biolabs Inc, San Diego, Calif., USA). Aspergillus GM in serum was determination using Platelia GM-EIA kits (Bio-Rad Laboratories, Redmond, Wash., USA). Cut-off index was calculated by the formula: Cut-off index=OD in sample/OD in cut-off control provided in kit. For tissue fungal load assays, 100 mg of lung tissue was removed aseptically and homogenized in 0.2 mL of 0.1% agar in sterile distilled water. Serially diluted lung homogenates were plated on Malt agar plates (50 μL/plate), and incubated at 24±1° C. for 72 to 96 h. The colonies of A. fumigatus on each plate was counted and the fungal titre presented as CFU per gram of lung tissue.
# [9] = ATCC10231, strain ATCC10231, visual inspection (CLSI)
# [10] = strain 20183.073, visual inspection (CLSI)
# [11] = strain 20186.025, visual inspection (CLSI)
# [12] = strain 20240.047, visual inspection (CLSI)
# [13] = strain ATCC10231, visual inspection (CLSI)
# [14] = strain ATCC36583, visual inspection (CLSI)
# [15] = strain R363, visual inspection (CLSI)
# [16] = Prophylactic Treatment, 0.08 mg/mL intra-nasally
# [17] = Prophylactic Treatment, 0.4 mg/mL intra-nasally
# [18] = Prophylactic Treatment, 2 mg/mL intra-nasally
# [19] = Therapeutic Treatment, 0.4 mg/mL intra-nasally
# [20] = Therapeutic Treatment, 2 mg/mL intra-nasally
# [21] = Therapeutic Treatment, 10 mg/mL intra-nasally
smiles,measurement,setting,value
"Cc1cc(N2CCN(c3ccc(C(=O)Nc4ccc(F)cc4)cc3)CC2)ccc1OC[C@@H]1CO[C@@](Cn2cncn2)(c2ccc(F)cc2F)C1 [Compound (I), 4-(4-(4-(((3R,5R)-5-((1H-1,2,4-triazol-1-yl)methyl)-5-(2,4-difluorophenyl)tetrahydrofuran-3-yl)methoxy)-3-methylphenyl)piperazin-1-yl)-N-(4-fluorophenyl)benzamide]",MIC50,[1],5.43 nM
same,MIC50,[2]; [9],0.13 µg/mL
same,MIC50,[2]; [10],0.5 µg/mL
same,MIC50,[2]; [11],> 8 µg/mL
same,MIC50,[2]; [12],0.031 µg/mL
same,MIC,[2]; [12],> 8 µg/mL
same,MIC,[2]; [13],> 8 µg/mL
same,MIC50,[3]; [14],0.5 µg/mL
same,MIC,[3]; [14],> 8 µg/mL
same,MIC50,[3]; [15],0.5 µg/mL
same,MIC,[3]; [15],> 8 µg/mL
same,MIC50,[4],0.063 µg/mL
same,MIC,[4],> 8 µg/mL
same,MIC50,[5],0.031 µg/mL
same,MIC,[5],> 8 µg/mL
same,MIC50,[6],0.063 µg/mL
same,MIC,[6],2 µg/mL
same,MIC50,[7],< 0.008 µg/mL
same,MIC,[7],0.031 µg/mL
same,"ID50, GM in BALF",[8],<80 µg/mL
same,"ID50, GM in serum",[8],<80 µg/mL
same,"ID50, Lung Fungal Load",[8],86 µg/mL
same,CFU in lung,[8]; [16],15.2 ± 13.7 /mg of lung
same,"CFU in lung, % inhibition",[8]; [16],46%
same,GM in BALF,[8]; [16],0.70 ± 0.39 COI
same,"GM in BALF, % inhibition",[8]; [16],85%
same,GM in serum,[8]; [16],0.81 ± 0.52 COI
same,"GM in serum, % inhibition",[8]; [16],85%
same,CFU in lung,[8]; [17],2.1 ± 1.6 /mg of lung
same,"CFU in lung, % inhibition",[8]; [17],93%
same,GM in BALF,[8]; [17],0.37 ± 0.46 COI
same,"GM in BALF, % inhibition",[8]; [17],92%
same,GM in serum,[8]; [17],0.24 ± 0.18 COI
same,"GM in serum, % inhibition",[8]; [17],95%
same,CFU in lung,[8]; [18],0.8 ± 0.7 /mg of lung
same,"CFU in lung, % inhibition",[8]; [18],97%
same,GM in BALF,[8]; [18],0.13 ± 0.02 COI
same,"GM in BALF, % inhibition",[8]; [18],97%
same,GM in serum,[8]; [18],0.18 ± 0.07 COI
same,"GM in serum, % inhibition",[8]; [18],97%
same,CFU in lung,[8]; [19],3.8 ± 1.0 /mg of lung
same,"CFU in lung, % inhibition",[8]; [19],87%
same,GM in BALF,[8]; [19],0.24 ± 0.06 COI
same,"GM in BALF, % inhibition",[8]; [19],95%
same,GM in serum,[8]; [19],0.29 ± 0.11 COI
same,"GM in serum, % inhibition",[8]; [19],95%
same,CFU in lung,[8]; [20],1.9 ± 1.7 /mg of lung
same,"CFU in lung, % inhibition",[8]; [20],93%
same,GM in BALF,[8]; [20],0.22 ± 0.14 COI
same,"GM in BALF, % inhibition",[8]; [20],95%
same,GM in serum,[8]; [20],0.25 ± 0.19 COI
same,"GM in serum, % inhibition",[8]; [20],95%
same,CFU in lung,[8]; [21],0.5 ± 0.3 /mg of lung
same,"CFU in lung, % inhibition",[8]; [21],98%
same,GM in BALF,[8]; [21],0.11 ± 0.05 COI
same,"GM in BALF, % inhibition",[8]; [21],98%
same,GM in serum,[8]; [21],0.24 ± 0.11 COI
same,"GM in serum, % inhibition",[8]; [21],95%
CC[C@@H]([C@H](C)O)n1ncn(-c2ccc(N3CCN(c4ccc(OC[C@@H]5CO[C@@](Cn6cncn6)(c6ccc(F)cc6F)C5)cc4)CC3)cc2)c1=O [Posaconazole],MIC50,[1],4.48 nM
same,MIC50,[2]; [9],0.13 µg/mL
same,MIC50,[2]; [10],0.25 µg/mL
same,MIC50,[2]; [11],> 8 µg/mL
same,MIC50,[2]; [12],0.031 µg/mL
same,MIC,[2]; [12],> 8 µg/mL
same,MIC,[2]; [13],> 8 µg/mL
same,MIC100,[2]; [11],>8.0 µg/mL
same,MIC50,[3]; [14],0.5 µg/mL
same,MIC,[3]; [14],> 8 µg/mL
same,MIC50,[3]; [15],0.5 µg/mL
same,MIC,[3]; [15],> 8 µg/mL
same,MIC50,[4],0.13 µg/mL
same,MIC,[4],0.25 µg/mL
same,MIC50,[5],0.063 µg/mL
same,MIC,[5],0.13 µg/mL
same,MIC50,[6],0.13 µg/mL
same,MIC,[6],> 8 µg/mL
same,MIC50,[7],< 0.008 µg/mL
same,MIC,[7],0.031 µg/mL
same,"ID50, GM in BALF",[8],1300 µg/mL
same,"ID50, GM in serum",[8],470 µg/mL
same,"ID50, Lung Fungal Load",[8],240 µg/mL
C[C@@H](c1ncncc1F)[C@](O)(Cn1cncn1)c1ccc(F)cc1F [Voriconazole],MIC50,[1],154 nM
same,MIC50,[2]; [9],0.25 µg/mL
same,MIC50,[2]; [10],4 µg/mL
same,MIC50,[2]; [11],> 8 µg/mL
same,MIC50,[2]; [12],0.031 µg/mL
same,MIC,[2]; [12],> 8 µg/mL
same,MIC,[2]; [13],> 8 µg/mL
same,MIC100,[2]; [11],>8.0 µg/mL
same,MIC50,[3]; [14],0.25 µg/mL
same,MIC,[3]; [14],> 8 µg/mL
same,MIC50,[3]; [15],> 8 µg/mL
same,MIC,[3]; [15],> 8 µg/mL
same,MIC50,[4],0.5 µg/mL
same,MIC,[4],1 µg/mL
same,MIC50,[5],1 µg/mL
same,MIC,[5],2 µg/mL
same,MIC50,[6],8 µg/mL
same,MIC,[6],> 8 µg/mL
same,MIC50,[7],< 0.008 µg/mL
same,MIC,[7],0.063 µg/mL
